Measurements: US8466289B2, “Heterocyclic sulfonamide derivatives” (Novartis AG, priority 2009, dated 2013)

Assays:
[1] = tested on: A375 cells; assay: cell viability assay in A375 cells using XTT; assay type: cell-based; settings: Homo sapiens, A-375, 72 h, XTT read three days after compound addition
Procedure: The cell viability assay in A375 cells is set up in a 96-well plate format using XTT.
XTT is a yellow tetrazolium salt that is cleaved to an orange formazan dye by the mitochondria of metabolically active cells. The procedure allows for rapid determination in a microtitre plate, to give reproducible and sensitive results.
A375 cells are grown in DMEM media containing 10% FBS and 1 mM sodium pyruvate. Cells are trypsinized and seeded at 1000 cells/well. After allowing the cells to adhere overnight, compound is added to the wells at the following final concentrations: 10, 3, 1, 0.3, 0.1, 0.03, 0.01, 0.001, and 0.0001 μM. The assay is set up in triplicates for each concentration. DMSO concentrations are kept at 0.5%/well. Three days after compound addition, the XTT assay is performed. Wells are washed once with PBS. 100 μL of DMEM media without phenol red or FBS is added to each well. A working solution of XTT containing 1 mg/ml XTT and 100 μL of PMS (stock concentration 0.383 mg/ml) per 5 ml is prepared. 50 μL of the working solution of XTT is added to each well. Absorbance of the plate is read at 465 nm using a Spectramax 190 (Molecular Devices). The absorbance from wells with media and XTT alone, but without cells is considered the blank and subtracted from readings from all wells.
Percentage viability is calculated considering the blank subtracted value from wells treated with DMSO alone as 100% viable. GI50 values are calculated using Graphpad Prism, using non-linear regression curve fit for sigmoidal dose response (variable slope).
The cell viability assay is further described in Scudiero, et. al., Cancer Research (1988) 48, 4827-4833; Weislow, et. al., J. Natl. Cancer Institute, (1989) 81, 577-586; and Roehm, et. al., J. Immunol. Methods [1991]142:257-265.
(§1) The compounds of the above Examples were evaluated as inhibitors of the MAP kinase pathway in a BRAF-MEK-ERK enzymatic cascade assay and in the cell viability assay described above.

[2] = tested on: BRAF-MEK-ERK cascade (activated BRAF (V599E), unactive MEK1, unactive MAP Kinase 2/ERK2); assay: BRAF-MEK-ERK enzymatic cascade assay (TR-FRET); assay type: biochemical, human; settings: compounds screened at 10 μM, 45 minutes pre-incubation with enzymes, 100 μM ATP
Text: A BRAF-MEK-ERK cascade assay is used to evaluate the effects of the compounds as inhibitors of the MAP kinase pathway. An enzymatic cascade assay is set up using recombinant human activated BRAF (V599E) kinase (Cat No. 14-557), human full length unactive MEK1 kinase (Cat No. 14-706) and human full length unactive MAP Kinase 2/ERK2 (Cat No. 14-536) enzymes procured from Upstate. TR-FRET (Time resolved fluorescence resonance energy transfer) detection technology is used for the read out. The assay buffer solution contains 50 mM Tris pH 7.5, 10 mM MgCl2, 1 mM DTT, 0.01% Tween 20, 0.1 nM activated BRAF, 2 nM unactive MEK1, 10 nM unactive ERK2, 100 μM ATP and 500 nM long chain biotin-peptide substrate (LCB-FFKNIVTPRTPPP) in a 384 well format. The kinase reaction is stopped after 90 minutes with 10 mM EDTA and Lance detection mix (2 nM Eu-labeled phospho-serine/threonine antibody (Cat. No. AD0176-Perkin Elmer), 20 nM SA-APC (Cat No. CR130-100-Perkin Elmer) is added. The TR-FRET signal (Excitation at 340 nm, Emission at 615 nm and 665 nm) is read with 50 μs delay time on a Victor3 V fluorimeter. The data is calculated using the ratio of readings at 665 nm to 615 nm. The final concentration of DMSO is 2.5% in the assay. Compounds are screened at 10 μM concentration with pre-incubation of the enzymes in the presence of test compound for 45 minutes.
Each individual IC50 is determined using a 10 point dose response curve generated by GraphPad Prism software Version 4 (San Diego, Calif., USA) using non linear regression curve fit for sigmoidal dose response (variable slope).
These assays described above are fully detailed in Han, Shulin, et. al., Bioorganic & Medicinal Chemistry Letters (2005) 15, 5467-5473, and in Yeh, et. al., Clin Cancer Res (2007) 13 (5), 1576-1583.
as §1

## Cc1c(Nc2ccc(Br)cc2F)c(NS(=O)(=O)C2(CC(O)CO)CC2)c2n(c1=O)CCN2 (stereo not drawn) [Example 4A, 1-(2,3-Dihydroxy-propyl)-cyclopropanesulfonic acid [7-(4-bromo-2-fluoro-phenylamino)-6-methyl-5-oxo-1,2,3,5-tetrahydro-imidazo[1,2-a]pyridin-8-yl]-amide]
[1]
  GI50: 2880 nM
[2]
  % inhibition: 100%

## Cc1c(Nc2ccc(I)cc2F)c(NS(=O)(=O)N(C)C)c2n(c1=O)CCS2 [Example 23A, N-[7-(2-Fluoro-4-iodo-phenylamino)-6-methyl-5-oxo-2,3-dihydro-5H-thiazolo[3,2-a]pyridin-8-yl]-dimethylaminosulfonamide]
[1]
  GI50: 107 nM
[2]
  % inhibition: 100%

## Cc1c(Nc2ccc(I)cc2F)c(NS(=O)(=O)C2(CO)CC2)c2n(c1=O)CCS2 [Example 22A, 1-Hydroxymethyl-cyclopropanesulfonic acid [7-(2-fluoro-4-iodo-phenylamino)-6-methyl-5-oxo-2,3-dihydro-5H-thiazolo[3,2-a]pyridin-8-yl]-amide]
[1]
  GI50: 61 nM
[2]
  % inhibition: 97%

## Cc1c(Nc2ccc(I)cc2F)c(NS(=O)(=O)C2(CO)CC2)c2n(c1=O)CCO2 [Example 11A, 1-Hydroxymethyl-cyclopropanesulfonic acid [7-(2-fluoro-4-iodo-phenylamino)-6-methyl-5-oxo-2,3-dihydro-5H-oxazolo[3,2-a]pyridin-8-yl]-amide]
[1]
  GI50: 20 nM
[2]
  % inhibition: 100%

## Cc1c(Nc2ccc(I)cc2F)c(NS(=O)(=O)C2(CC(O)CO)CC2)c2n(c1=O)CCN2 (stereo not drawn) [Example 5A, 1-(2,3-Dihydroxy-propyl)-cyclopropanesulfonic acid [7-(2-fluoro-4-iodo-phenylamino)-6-methyl-5-oxo-1,2,3,5-tetrahydro-imidazo[1,2-a]pyridin-8-yl]-amide]
[1]
  GI50: 293 nM
[2]
  % inhibition: 100%

## Cc1c(Nc2ccc(I)cc2F)c(NS(=O)(=O)C2(CC(O)CO)CC2)c2n(c1=O)CCO2 (stereo not drawn) [Example 10A, 1-(2,3-Dihydroxy-propyl)-cyclopropanesulfonic acid [7-(2-fluoro-4-iodo-phenylamino)-6-methyl-5-oxo-2,3-dihydro-5H-oxazolo[3,2-a]pyridin-8-yl]-amide]
[1]
  GI50: 33 nM
[2]
  % inhibition: 100%
